Experimental data published in patent EP2433948A1, “Use of a new class of nucleotide sugar as antibiotic or cytostatic agent” (Max-Planck-Gesellschaft zur Förderung der Wissenschaften …, priority 2010, dated 2012).

Target: E. coli MurA (Escherichia coli, UniProt P0A749)
Assay: MurA activity/inhibition assay (phosphate release coupled to PNPase cleavage of fluorescent 7-methylguanosine)
Type: biochemical
Excerpt: • (a) MurA performs the first step of UDP-muramic acid biosynthesis. After sequential binding of UNAG and phosphoenolpyruvate, a tetrahedral intermediate is formed that yields enolpyruvyl-UNAG after cleavage of inorganic phosphate. UNAG-3P most likely mimics this tetrahedral intermediate and thereby inhibits MurA catalysis by a competitive binding mechanism. (b) Determination of the Ki of UNAG-3P for MurA. Enolpyruvyl-UNAG formation catalyzed by MurA from E. coli in presence of PEP and UNAG-3P and varying UNAG concentrations under steady state conditions. MurA enzyme kinetics were followed by coupling the reaction to phosphate dependent cleavage of fluorescent 7-methylguanosine by nucleoside phosphorylase resulting in a strong decrease of the fluorescence at 400 nm (λexc = 300 nm). The UNAG-3P concentrations for each saturation curve were 0 µM (●), 15 µM (□) and 30 µM (Δ). A Lineweaver-Burk plot is shown as inset.
The enolpyruvyl activity of E. coli MurA was monitored by coupling phosphate release to cleavage of fluorescent 7-methylguanosine (Sigma) by bacterial purine-nucleoside phosphorylase (PNPase) (Sigma). […] The reactions were monitored by the decrease in fluorescence at 400 nm with excitation set to 300 nm in a FluoroMax-3 spectrofluorometer (HORIBA Jobin Yvon) with excitation and emission bandwidths of 5 nm. […]

Sequence of E. coli MurA (P0A749 whole entry): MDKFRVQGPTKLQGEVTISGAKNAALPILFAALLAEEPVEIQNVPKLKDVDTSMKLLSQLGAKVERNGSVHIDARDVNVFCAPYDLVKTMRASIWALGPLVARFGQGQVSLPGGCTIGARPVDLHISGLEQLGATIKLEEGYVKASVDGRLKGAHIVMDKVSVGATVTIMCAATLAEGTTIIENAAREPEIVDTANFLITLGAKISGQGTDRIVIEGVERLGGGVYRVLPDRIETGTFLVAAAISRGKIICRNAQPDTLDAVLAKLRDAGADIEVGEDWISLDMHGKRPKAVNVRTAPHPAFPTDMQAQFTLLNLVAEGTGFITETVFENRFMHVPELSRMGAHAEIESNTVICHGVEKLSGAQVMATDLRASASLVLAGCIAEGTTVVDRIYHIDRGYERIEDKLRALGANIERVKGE

CC(=O)N[C@H]1[C@@H](OP(=O)(O)OP(=O)(O)OC[C@H]2O[C@@H](n3ccc(=O)[nH]c3=O)[C@H](O)[C@@H]2O)O[C@H](CO)[C@@H](O)[C@@H]1OP(=O)(O)O [UNAG-3P, Uridinediphosphate-2-N-acetyl-3-phosphate-glucosamine]
Ki: 7 µM
